Counter-ions that a name gives are not always drawn.

We go through 23 molecules from patent US9718774B2, “Indole carboxamide derivatives as P2X7 receptor antagonist” (ACTELION PHARMACEUTICALS LTD, priority 2012, dated 2017).

One assay concerns the target T1, human recombinant P2X7 receptor (Homo sapiens, UniProt Q99572).
T1 construct: expressed in transfected cells
T1 sequence (Q99572 1-595): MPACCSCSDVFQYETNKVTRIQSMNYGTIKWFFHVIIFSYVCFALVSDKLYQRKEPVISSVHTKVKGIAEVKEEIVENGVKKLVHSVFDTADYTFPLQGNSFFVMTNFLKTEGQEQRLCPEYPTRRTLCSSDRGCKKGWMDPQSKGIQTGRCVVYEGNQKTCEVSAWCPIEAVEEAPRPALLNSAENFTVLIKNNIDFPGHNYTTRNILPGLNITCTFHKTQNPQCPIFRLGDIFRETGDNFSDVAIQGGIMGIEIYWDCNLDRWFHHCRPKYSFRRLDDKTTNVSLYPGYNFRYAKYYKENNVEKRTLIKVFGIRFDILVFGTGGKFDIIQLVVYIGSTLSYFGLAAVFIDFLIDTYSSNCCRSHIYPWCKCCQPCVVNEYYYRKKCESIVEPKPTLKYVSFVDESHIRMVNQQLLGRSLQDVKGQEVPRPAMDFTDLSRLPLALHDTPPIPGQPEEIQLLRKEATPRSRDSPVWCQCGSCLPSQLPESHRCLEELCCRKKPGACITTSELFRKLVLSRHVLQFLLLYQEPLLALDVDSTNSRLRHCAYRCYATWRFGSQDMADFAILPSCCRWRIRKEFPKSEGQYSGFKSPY
Nature of the assay: YO-PRO assay: P2X7 receptor antagonistic activity in HEK cells stably expressing P2X7. It counts as cell-based. The note with it: IC50, antagonistic activity with respect to the P2X7 receptor. On the procedure: The P2X7 receptor antagonistic activity of the compounds of formula (I) is determined in accordance with the following experimental method.
Cell Line Generation and YO-PRO Assay
Cell line generation was performed in general according to established molecular cloning protocols. Specifically, RNA was extracted from human whole blood using the Qiagen RNeasy kit (Qiagen, CH) according to the manufacturer's instructions. Subsequently cDNA was made (Superscript II, Invitrogen AG, CH) and the human P2X7 gene (genbank ref. BC011913) was amplified with the following primers: […] and […]. The amplified sequence was subsequently ligated into a pcDNA3.1 (+) NotI, NheI digested plasmid. Human embryonic kidney (HEK) cells (ATCC CRL—1573, Manassas, Va., USA) were transfected with the pcDNA3.1 (+).hP2X7 plasmid using lipofectamine 2000 (Invitrogen AG, CH) according to the manufacturer's instructions. Following a 24 h exposure to DNA, cells were trypsinized and re-seeded at low density in the presence of 250 μg Geneticin. Geneticin resistant cells were then selected during two consecutive rounds of cloning by serial limiting dilution with visual inspection. Individual clones were screened for P2X7 expression by applying ATP and recording the resultant uptake of YO-PRO1. Specific cell clones were chosen based on RNA and protein expression. HEK cells stably expressing P2X7 were used to screen drugs using the YO-PRO1 assay. Cells were grown to confluency in adherent culture at 37° C. in a humidified 5% CO2 incubator (split 1/5 every 3-4 days with DMEM, 10% FCS, 1% Penicillin/Streptomycin, 250 μg/ml Geneticin). Adherent cells were detached by incubation with Trypsine (1 ml per 165 cm^2 dish) for 2 minutes, then washed off with 10 ml PBS (without Mg^2+ and Ca^2+), and resuspended in DMEM, 10% FCS, 1% Penicillin/Streptomycin, no Geneticin. 10′000 cells per well (48 hours before the assay) or 25′000 cells per well (Vi-cell XR (Beckman Coulter) (24 hours before the assay) in 50 μl full medium were seeded on 384-well black-wall, clear bottom plates, that were coated before with 10 μl per well Poly-L-Lysine, incubated for 30-60 minutes at 37° C. and washed once with PBS. Medium was removed from cells and 50 μl of assay buffer containing 0.5 μM YO-PRO-1 was added into the wells. Solutions of antagonist compounds were prepared by serial dilutions of a 10 mM DMSO solution of the antagonist into PBS using a BioMek (Beckman Coulter). Each concentration was performed in duplicate. For IC50 measurements 10 concentration points were measured (10 μM being the highest concentration followed by 9 serial dilution steps 1/3). The cells were incubated with the antagonists of the present invention together with ATP at a final concentration of 250 μM for 90 minutes. During this time period, four time points were taken. Each time point comprised the average of several measurements made within a few seconds. Fluorescence was measured in the FLIPR tetra (Molecular Devices) using the filters appropriate for YO-PRO-1 fluorescence (excitation 485/20, emission 530/25). The FLIPR tetra was equipped with Molecular Devices Screen Works system control software to define and run experimental protocols. […] For IC50 measurements the maximum intensity is plotted against the concentration of compound to determine IC50 values.
With `Cc1ncc(C(CNC(=O)c2ccc3[nH]ccc3c2Cl)N2CC3CC(C2)O3)cn1` (centres unmarked) [Example 95, 4-Chloro-1H-indole-5-carboxylic acid [2-(2-methyl-pyrimidin-5-yl)-2-(6-oxa-3-aza-bicyclo[3.1.1]hept-3-yl)-ethyl]-amide], the IC50 came to 28 nM.

Staying with this assay, now noted: antagonistic activity with respect to the P2X7 receptor, read-out: IC50.
On to `O=C(NCC(c1cccnc1)C1CCNCC1)c1ccc2[nH]ccc2c1Cl` (racemic) [Example 20, rac-4-Chloro-1H-indole-5-carboxylic acid (2-piperidin-4-yl-2-pyridin-3-yl-ethyl)-amide dihydrochloride], for which the IC50 came out at 447 nM. Still for that read-out and setting: as for `O=C(NCC(c1c(F)cc(F)cc1F)N1CCOCC1)c1ccc2[nH]ccc2c1Cl` (racemic) [Example 33, rac-4-Chloro-1H-indole-5-carboxylic acid [2-morpholin-4-yl-2-(2,4,6-trifluoro-phenyl)-ethyl]-amide], the figure is 301 nM; as for `CCc1c(C(=O)NCC(c2cnc(C)nc2)N2CCOCC2)ccc2[nH]ccc12` (racemic) [Example 101, rac-4-Ethyl-1H-indole-5-carboxylic acid [2-(2-methyl-pyrimidin-5-yl)-2-morpholin-4-yl-ethyl]-amide], 30 nM; as for `Cc1ncc(C(CNC(=O)c2ccc3[nH]ccc3c2C)N2CCOCC2)cn1` (racemic) [Example 100, rac-4-Methyl-1H-indole-5-carboxylic acid [2-(2-methyl-pyrimidin-5-yl)-2-morpholin-4-yl-ethyl]-amide], 19 nM. For `O=C(NCC(c1cccnn1)N1CCCCC1)c1ccc2[nH]ccc2c1Cl` (racemic) [Example 73, rac-4-Chloro-1H-indole-5-carboxylic acid (2-piperidin-1-yl-2-pyridazin-3-yl-ethyl)-amide], the IC50 was found to be 1010 nM.

As to `Cc1cnc(C(CNC(=O)c2ccc3[nH]ccc3c2Cl)N2CCOCC2)cn1` (racemic) [Example 63, rac-4-Chloro-1H-indole-5-carboxylic acid [2-(5-methyl-pyrazin-2-yl)-2-morpholin-4-yl-ethyl]-amide], the IC50 was found to be 257 nM. `Cc1ncc(C(CNC(=O)c2ccc3[nH]ccc3c2Cl)N2CC(C)OC(C)C2)cn1` (single isomer, unassigned) [Example 41, 4-Chloro-1H-indole-5-carboxylic acid [2-(2,6-dimethyl-morpholin-4-yl)-2-(2-methyl-pyrimidin-5-yl)-ethyl]-amide]: the IC50 is 651 nM. Same read-out and setting: as for `O=C(NCC(c1ccc(OC(F)(F)F)cc1)N1CCOCC1)c1ccc2[nH]ccc2c1Cl` (racemic) [Example 48, rac-4-Chloro-1H-indole-5-carboxylic acid [2-morpholin-4-yl-2-(4-trifluoromethoxy-phenyl)-ethyl]-amide], the figure is 134 nM. Turning to `COc1cc(C(=O)NCC(c2cnc(C)nc2)N2CCOCC2)c(Cl)c2cc[nH]c12` (single isomer, unassigned) [Example 115, 4-Chloro-7-methoxy-1H-indole-5-carboxylic acid [2-(2-methyl-pyrimidin-5-yl)-2-morpholin-4-yl-ethyl]-amide], the IC50 was 8.2 nM.

Take `Cc1ncc(C(CNC(=O)c2c(Cl)cc3[nH]ccc3c2Cl)N2CCOCC2)cn1` (racemic) [Example 94, rac-4,6-Dichloro-1H-indole-5-carboxylic acid [2-(2-methyl-pyrimidin-5-yl)-2-morpholin-4-yl-ethyl]-amide]: the IC50 is 211 nM. Take `Cc1ncc(C(CNC(=O)c2cc(F)c3[nH]ccc3c2F)N2CCOCC2)cn1` (racemic) [Example 117, rac-4,7-Difluoro-1H-indole-5-carboxylic acid [2-(2-methyl-pyrimidin-5-yl)-2-morpholin-4-yl-ethyl]-amide]: the IC50 was 118 nM. Take `O=C(NCC(c1ccc(C(F)(F)F)nc1)N1CCOCC1)c1ccc2[nH]ccc2c1Cl` (racemic) [Example 10, rac-4-Chloro-1H-indole-5-carboxylic acid [2-morpholin-4-yl-2-(6-trifluoromethyl-pyridin-3-yl)-ethyl]-amide]: the half-maximal inhibitory concentration (IC50) is 5.1 nM. For the molecule `O=C(NCC(c1cncs1)N1CCCCC1)c1ccc2[nH]ccc2c1Cl` (racemic) [Example 62, rac-4-Chloro-1H-indole-5-carboxylic acid (2-piperidin-1-yl-2-thiazol-5-yl-ethyl)-amide], the IC50 was determined as 48 nM. Consider `CCC(CC)C(CNC(=O)c1ccc2[nH]ccc2c1Cl)c1cncnc1` (racemic) [Example 88, rac-4-Chloro-1H-indole-5-carboxylic acid (3-ethyl-2-pyrimidin-5-yl-pentyl)-amide], for which the IC50 amounted to 15 nM.

For `Cc1ncc(C(CNC(=O)c2ccc3[nH]ccc3c2Cl)OC2CCCCC2)cn1` (racemic) [Example 69, rac-4-Chloro-1H-indole-5-carboxylic acid [2-cyclohexyloxy-2-(2-methyl-pyrimidin-5-yl)-ethyl]-amide], the IC50 worked out at 61 nM.

Turning to `O=C(NCC(c1cccnc1)N1CCOCC1)c1ccc2[nH]ccc2c1Cl` (racemic) [Example 25, rac-4-Chloro-1H-indole-5-carboxylic acid (2-morpholin-4-yl-2-pyridin-3-yl-ethyl)-amide], the IC50 was 32 nM. Consider `O=C(NCC(c1ccc(F)cn1)N1CCOCC1)c1ccc2[nH]ccc2c1Cl` (racemic) [Example 36, rac-4-Chloro-1H-indole-5-carboxylic acid [2-(5-fluoro-pyridin-2-yl)-2-morpholin-4-yl-ethyl]-amide], for which the IC50 was 265 nM. For the molecule `Cc1ncc(C(CNC(=O)c2ccc3[nH]ccc3c2Cl)N2CCC(F)(F)CC2)cn1` (single isomer, unassigned) [Example 6, 4-Chloro-1H-indole-5-carboxylic acid [2-(4,4-difluoro-piperidin-1-yl)-2-(2-methyl-pyrimidin-5-yl)-ethyl]-amide], the IC50 was 6.8 nM. Regarding `O=C(NCC(c1ccc(Cl)nc1)N1CCCCC1)c1ccc2[nH]ccc2c1Cl` (racemic) [Example 56, rac-4-Chloro-1H-indole-5-carboxylic acid [2-(6-chloro-pyridin-3-yl)-2-piperidin-1-yl-ethyl]-amide], the 50% inhibitory concentration (IC50) was 8.8 nM. For `O=C(NCC(c1c(F)cc(F)cc1F)N1CCCCC1)c1ccc2[nH]ccc2c1Cl` (racemic) [Example 30, rac-4-Chloro-1H-indole-5-carboxylic acid [2-piperidin-1-yl-2-(2,4,6-trifluoro-phenyl)-ethyl]-amide], the IC50 came to 1300 nM. Regarding `Cc1ncc(C(CNC(=O)c2cc(Cl)c3[nH]ccc3c2C)N2CCOCC2)cn1` (racemic) [Example 108, rac-7-Chloro-4-methyl-1H-indole-5-carboxylic acid [2-(2-methyl-pyrimidin-5-yl)-2-morpholin-4-yl-ethyl]-amide], the IC50 came out at 11 nM.

On to `O=C(NCC(c1ccccc1F)N1CCOCC1)c1ccc2[nH]ccc2c1Cl` (racemic) [Example 35, rac-4-Chloro-1H-indole-5-carboxylic acid [2-(2-fluoro-phenyl)-2-morpholin-4-yl-ethyl]-amide], for which the IC50 was 161 nM.
